Legend:
[1] = Stability of pilocarpine nitrate in the release medium; assay type: physicochemical; conditions: over a period of one week
Procedure: Before running the release studies, the stability of PCN in the release medium was tested by monitoring the changes in the concentration of a prepared stock solution of PCN in each of them over a period of one week.

[2] = In vitro hydrolytic degradation of poly(diol-tricarballylate) elastomers in PBS (pH 7.4); assay type: physicochemical
Procedure: In order to examine the influence of chain length on the degradation rate and the changes in the mechanical properties of the elastomer during the in vitro degradation, four different elastomers, based on varying chain lengths of alkylene diol (C6-C12), were prepared and tested. FIGS. 21a and 21b show the weight loss and water absorption data for the four prepared elastomers.
Young's modulus (E) and the ultimate tensile stress (σ) decreased in a nearly linear fashion with time as indicative of zero-order degradation mechanism. This linear decrease was observed regardless of the network compositions, the crosslinking density and the initial E and σ of the elastomers. […] No significant change in the ultimate elongation was found up to 12 weeks of the in vitro degradation time. […] It is only with surface erosion degradation pattern that the elastomers can maintain their mechanical properties unchanged^41. […] The above observations illustrates that the changes in the mechanical properties of these networks took place in two stages. The first stage was characterized by a rapid mechanical weakening (rapid decrease in E and a) which lasted for up to 4 weeks. […] This is in correlation with the trend noted for the weight loss and water absorption reported above (FIG. 21).
Through a linear regression of the zero-order degradation kinetics of the data in FIGS. 23a and 23b using equations (1) & (2), the rate constants were calculated and are listed in Table 1. Et=E0−KEt. (1) σt=σ0−Kσt. (2) In equations 1 & 2, t denoted the immersion time (in weeks) in PBS. The values of E0 and σ0 corresponded to the intercepts obtained from extrapolating the zero-order fitted line. Kσ and KE represented the zero-order degradation constants for […].

CC[C@@H]1C(=O)OC[C@@H]1Cc1cncn1C [PN, Pilocarpine Nitrate]
Change in concentration of stock solution in the release medium [1]: no significant changes from its initial concentration

poly(1,8 octane diol-co-tricarballylate) [POTC]
KE (zero-order degradation constant, Young's modulus) [2]: 0.0301 MPa/week | Kσ (zero-order degradation constant, ultimate tensile stress) [2]: 0.0124 MPa/week

poly(1,12 dodecane diol-co-tricarballylate) [PDDTC]
KE (zero-order degradation constant, Young's modulus) [2]: 0.0080 MPa/week | Kσ (zero-order degradation constant, ultimate tensile stress) [2]: 0.0018 MPa/week

poly(1,10 decane diol-co-tricarballylate) [PDTC]
KE (zero-order degradation constant, Young's modulus) [2]: 0.0237 MPa/week | Kσ (zero-order degradation constant, ultimate tensile stress) [2]: 0.0114 MPa/week

From patent US9422396B2, “Biodegradable elastomers prepared by the condensation of an organic di-, tri- or tetra-carboxylic acid and an organic diol” (QATAR UNIVERSITY, priority 2007, dated 2016)
